Laboratory results published in patent publication US12617762B2, “Carboxy derivatives with antiinflamatory properties” (Sitryx Therapeutics Limited, priority 2019, dated 2026).
Like-named read-outs stand apart in the source and are kept apart here.

Columns and labels:
[1] = test system: IL-1β cytokine output from THP-1s; assay: THP-1 AlphaLISA IL-1β cytokine inhibition assay; type: cell-based; conditions: Homo sapiens
Method in brief: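 IL-1β release by AlphaLISA, expressed as % inhibition against +/− LPS controls on each plate. Differentiation: PMA, 72 h. Sequence: 30 min compound pre-treatment, LPS 24 h, Nigericin 1 h before supernatant harvest, all at 37° C./5% CO2.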

[2] = test system: IL-6 cytokine output from THP-1s; assay: THP-1 AlphaLISA IL-6 cytokine inhibition assay; type: cell-based; conditions: Homo sapiens, LPS then nigericin
Method in brief: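 THP-1 cells differentiated with PMA for 72 h, then pre-incubated with compound 30 min, stimulated with LPS 24 h, then Nigericin 1 h, all at 37° C. Supernatant IL-6 measured by AlphaLISA. Percentage inhibition normalized to +/− LPS plate controls.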

[3] = test system: NRF2 (nuclear factor erythroid 2-related factor 2); assay: NRF2 +/-GSH activation assay (DiscoverX PathHunter NRF2 translocation kit, U2OS cells); type: cell-based; conditions: for NRF2 activation +GSH Emax / NRF2 activation −GSH Emax / −GSH Emax: normalised to DMF high control
Method in brief: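 Activation is expressed as percent of plate DMF (high) versus no-DMF (low) controls, from luminescence after 6 h compound exposure at 37 °C of U2OS PathHunter cells. The +GSH condition used compound pre-incubated 30 min in 6 mM working GSH; −GSH cells received compound directly.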

[4] = Hepatocyte stability assay, mouse; type: in vitro ADME; conditions: mouse, hepatocytes; for hepatocyte CLint at 10 μM: Hepatocyte stability Clint; for half-life at 10 μM: Hepatocyte stability T½
Method in brief: (§1)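 Metabolic stability was measured as depletion of 10 μM compound in thawed hepatocytes (0.5×10^6 cells/mL, 37° C, up to 60 min). Intrinsic clearance came from the slope of log-transformed percentage remaining.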

[5] = Hepatocyte stability assay, human; type: in vitro ADME; conditions: human, hepatocytes; for hepatocyte CLint at 10 μM: Hepatocyte stability Clint; for half-life at 10 μM: Hepatocyte stability T½
Method in brief: as §1

[6] = THP-1, differentiated THP-1 cells, LPS then nigericin
[7] = THP-1, differentiated THP-1 cells
[8] = +GSH, 30 minute compound-GSH pre-incubation, read-out: NRF2 activation +GSH EC50
[9] = −GSH, U2OS PathHunter cells, 6 hours compound treatment, read-out: NRF2 activation −GSH EC50
[10] = THP-1, Table 3, head to head comparison of exo vs endo double bond compounds
[11] = −GSH, Table 5 exo vs endo comparison, read-out: −GSH EC50
[12] = −GSH, Table 5 exo vs endo comparison

Row | SMILES | IC50 [1, 6] | IC50 [2, 7] | EC50 [3, 8] | NRF2 activation +GSH Emax ([3]; +GSH) | EC50 [3, 9] | NRF2 activation −GSH Emax ([3]; −GSH) | hepatocyte CLint at 10 μM [4] | half-life at 10 μM [4] | hepatocyte CLint at 10 μM [5] | half-life at 10 μM [5] | IC50 [1, 10] | EC50 [3, 11] | −GSH Emax [3, 12] | IC50 ([2]; differentiated THP-1 cells)
1 | C=C(Cc1nc(C(F)(F)c2ccc(Cl)cc2)no1)C(=O)O [Example 74, 2-((3-((4-chlorophenyl)difluoromethyl)-1,2,4-oxadiazol-5-yl)methyl)acrylic acid] | 6.4 µM | 9 µM | 44.4 µM | 65% | 24.4 µM | 174% | 31 µL/min/1e6 cells | 47 min | < 3 µL/min/1e6 cells | > 430 min |  |  |  | 
2 | C=C(Cc1nc(-c2ccc(CCCCC(F)(F)F)cc2)no1)C(=O)O [Example 75, 2-((3-(4-(5,5,5-trifluoropentyl)phenyl)-1,2,4-oxadiazol-5-yl)methyl)acrylic acid] | 13.7 µM | 3.1 µM | 7.1 µM | 188% | 4.8 µM | 263% | 480 µL/min/1e6 cells | 4 min | 80 µL/min/1e6 cells | 15 min |  |  |  | 
3 | C=C(Cc1nc(C2(c3ccc(S(F)(F)(F)(F)F)cc3)CC2)no1)C(=O)O [Example 77, 2-((3-(1-(4-(pentafluoro-λ^6-sulfaneyl)phenyl)cyclopropyl)-1,2,4-oxadiazol-5-yl)methyl)acrylic acid] | 7.6 µM | 14.6 µM | 52.7 µM | 69% | 48.1 µM | 210% | 10 µL/min/1e6 cells | 189 min | < 3 µL/min/1e6 cells | > 460 min | 7.6 µM | 48.1 µM | 210% | 
4 | C=C(Cc1nc(-c2ccc(C(F)(F)CCCC)cc2)no1)C(=O)O [Example 79, 2-((3-(4-(1,1-difluoropentyl)phenyl)-1,2,4-oxadiazol-5-yl)methyl)acrylic acid] | 6.7 µM | 2.2 µM | 2.1 µM | 181% | 1.8 µM | 271% | > 460 µL/min/1e6 cells | < 3 min | 147 µL/min/1e6 cells | 11 min |  |  |  | 
5 | C=C(Cc1noc(C(F)(F)CCCCCCC)n1)C(=O)O [Example 83, 2-((5-(1,1-difluorooctyl)-1,2,4-oxadiazol-3-yl)methyl)acrylic acid] | 3.1 µM | 3.4 µM | 3.8 µM | 161% | 3 µM | 185% | > 460 µL/min/1e6 cells | < 3 min | 263 µL/min/1e6 cells | 5 min |  |  |  | 
6 | C=C(Cc1noc(C(F)(F)c2ccc(Br)cc2)n1)C(=O)O [Example 85, 2-((5-((4-bromophenyl)difluoromethyl)-1,2,4-oxadiazol-3-yl)methyl)acrylic acid] | 13.6 µM |  | 34.7 µM | 208% | 21.6 µM | 282% | 131 µL/min/1e6 cells | 13 min | 20 µL/min/1e6 cells | 77 min |  |  |  | 18.5 µM
7 | C=C(Cc1nc(C2(c3ccc(SC(F)(F)F)cc3)CC2)no1)C(=O)O [Example 86, 2-((3-(1-(4-((trifluoromethyl)thio)phenyl)cyclopropyl)-1,2,4-oxadiazol-5-yl)methyl)acrylic acid] | 8.4 µM | 9.4 µM | 35 µM | 221% | 18 µM | 320% | 17 µL/min/1e6 cells | 103 min | 7 µL/min/1e6 cells | 235 min | 8.4 µM | 18 µM | 320% | 
